Results as given in US20130072430A1, “METHODS FOR TREATMENT OR PROPHYLAXIS OF KIDNEY OR LIVER DYSFUNCTION” (NPS PHARMACEUTICALS, INC., priority 2010, published 2013).

Test system: Human patients with short bowel syndrome
Assay: Example 2: liver biomarkers (albumin, gamma glutamyl transferase, total bilirubin, ALT, AST, ALP) in short bowel syndrome patients, every four weeks for 24 weeks
Format: in vivo
Details: 0.05 mg/kg/d; for Gamma Glutamyl Transferase Observed Value, Mean / Gamma Glutamyl Transferase Observed Value, Median / ALKALINE PHOSPHATASE Change from Baseline, Median / ALT Change from Baseline, Mean / ALT Change from Baseline, Median / ALT Observed Value, Mean / ALT Observed Value, Median / AST Change from Baseline, Mean / AST Change from Baseline, Median / AST Observed Value, Mean / AST Observed Value, Median / Albumin Change from Baseline, Mean / Albumin Change from Baseline, Median / Albumin Observed Value, Mean / Albumin Observed Value, Median / Alkaline Phosphatase Change from Baseline, Mean / Alkaline Phosphatase Observed Value, Mean / Alkaline Phosphatase Observed Value, Median / Bilirubin Change from Baseline, Mean / Bilirubin Change from Baseline, Median / Bilirubin Observed Value, Mean / Bilirubin Observed Value, Median / Gamma Glutamyl Transferase Change from Baseline, Mean / Gamma Glutamyl Transferase Change from Baseline, Median: n=38; for ALT >10% decrease from Baseline, % of subjects / ALT >10% decrease from Baseline, n subjects / ALT >10% increase from Baseline, % of subjects / ALT >10% increase from Baseline, n subjects / ALT Within 10% of Baseline, % of subjects / ALT Within 10% of Baseline, n subjects / AST >10% decrease from Baseline, % of subjects / AST >10% decrease from Baseline, n subjects / AST >10% increase from Baseline, % of subjects / AST >10% increase from Baseline, n subjects / AST Within 10% of Baseline, % of subjects / AST Within 10% of Baseline, n subjects / Albumin >10% decrease from Baseline, % of subjects / Albumin >10% decrease from Baseline, n subjects / Albumin >10% increase from Baseline, n subjects / Albumin Within 10% of Baseline, % of subjects / Albumin Within 10% of Baseline, n subjects / Alkaline Phosphatase >10% decrease from Baseline, % of subjects / Alkaline Phosphatase >10% decrease from Baseline, n subjects / Alkaline Phosphatase >10% increase from Baseline, % of subjects / Alkaline Phosphatase >10% increase from Baseline, n subjects / Alkaline Phosphatase Within 10% of Baseline, % of subjects / Alkaline Phosphatase Within 10% of Baseline, n subjects / Bilirubin >10% decrease from Baseline, % of subjects / Bilirubin >10% decrease from Baseline, n subjects / Bilirubin >10% increase from Baseline, % of subjects / Bilirubin >10% increase from Baseline, n subjects / Bilirubin Within 10% of Baseline, % of subjects / Bilirubin Within 10% of Baseline, n subjects: m=38
Protocol: To further confirm the results of Example 1, a further study was conducted involving more individuals and additional diagnostic biomarkers. Human patients with short bowel syndrome were divided into two groups: a control group (43 total individuals) to receive placebo, and an experimental group (42 total individuals) to receive teduglutide at 0.05 mg/kg/day throughout the study. Patients were treated by subcutaneous injection of placebo or the appropriate dose of teduglutide. Known biomarkers of liver function were monitored every four weeks, for 24 weeks. The liver biomarkers tested included albumin, gamma glutamyl transferase, total bilirubin, ALT and AST and ALP. Before administration of placebo or teduglutide, diagnostic biomarker levels were tested to establish a baseline for each individual.
To determine the effect of GLP-2 on the levels of the diagnostic biomarkers, the average level of each biomarker was measured for the placebo and teduglutide treated groups for each visit. Furthermore, the average change from baseline was calculated using the established baseline values. For FIGS. 17-28, p-values were calculated using the t-test.
P values are provided, which were calculated for each distribution of biomarker changes for each week using the chi-squared test.

CC[C@H](C)[C@H](NC(=O)[C@H](Cc1ccccc1)NC(=O)[C@H](CC(=O)O)NC(=O)[C@H](CCCNC(=N)N)NC(=O)[C@H](C)NC(=O)[C@H](C)NC(=O)[C@H](CC(C)C)NC(=O)[C@H](CC(N)=O)NC(=O)[C@H](CC(=O)O)NC(=O)[C@H](CC(C)C)NC(=O)[C@@H](NC(=O)[C@@H](NC(=O)[C@H](CC(N)=O)NC(=O)[C@H](CCSC)NC(=O)[C@H](CCC(=O)O)NC(=O)[C@H](CC(=O)O)NC(=O)[C@H](CO)NC(=O)[C@H](Cc1ccccc1)NC(=O)[C@H](CO)NC(=O)CNC(=O)[C@H](CC(=O)O)NC(=O)CNC(=O)[C@@H](N)Cc1c[nH]cn1)[C@@H](C)O)[C@@H](C)CC)C(=O)N[C@@H](CC(N)=O)C(=O)N[C@@H](Cc1c[nH]c2ccccc12)C(=O)N[C@@H](CC(C)C)C(=O)N[C@H](C(=O)N[C@@H](CCC(N)=O)C(=O)N[C@H](C(=O)N[C@@H](CCCCN)C(=O)N[C@H](C(=O)N[C@H](C(=O)N[C@@H](CC(=O)O)C(=O)O)[C@@H](C)O)[C@@H](C)CC)[C@@H](C)O)[C@@H](C)CC [teduglutide]
Gamma Glutamyl Transferase Observed Value, Mean (Week 16): 72.4 U/L | Gamma Glutamyl Transferase Observed Value, Median (Week 16): 54 U/L | ALT >10% decrease from Baseline, % of subjects (Week 20): (60.5%) | ALT >10% decrease from Baseline, n subjects (Week 20): 23 | ALT >10% increase from Baseline, % of subjects (Week 20): (13.2%) | ALT >10% increase from Baseline, n subjects (Week 20): 5 | ALT Within 10% of Baseline, % of subjects (Week 20): (26.3%) | ALT Within 10% of Baseline, n subjects (Week 20): 10 | AST >10% decrease from Baseline, % of subjects (Week 20): (52.6%) | AST >10% decrease from Baseline, n subjects (Week 20): 20 | AST >10% increase from Baseline, % of subjects (Week 20): (18.4%) | AST >10% increase from Baseline, n subjects (Week 20): 7 | AST Within 10% of Baseline, % of subjects (Week 20): (28.9%) | AST Within 10% of Baseline, n subjects (Week 20): 11 | Albumin >10% decrease from Baseline, % of subjects (Week 20): (2.6%) | Albumin >10% decrease from Baseline, n subjects (Week 20): 1 | Albumin >10% increase from Baseline, n subjects (Week 20): 0 | Albumin Within 10% of Baseline, % of subjects (Week 20): (97.4%) | Albumin Within 10% of Baseline, n subjects (Week 20): 37 | Alkaline Phosphatase >10% decrease from Baseline, % of subjects (Week 20): (60.5%) | Alkaline Phosphatase >10% decrease from Baseline, n subjects (Week 20): 23 | Alkaline Phosphatase >10% increase from Baseline, % of subjects (Week 20): (7.9%) | Alkaline Phosphatase >10% increase from Baseline, n subjects (Week 20): 3 | Alkaline Phosphatase Within 10% of Baseline, % of subjects (Week 20): (31.6%) | Alkaline Phosphatase Within 10% of Baseline, n subjects (Week 20): 12 | Bilirubin >10% decrease from Baseline, % of subjects (Week 20): (65.8%) | Bilirubin >10% decrease from Baseline, n subjects (Week 20): 25 | Bilirubin >10% increase from Baseline, % of subjects (Week 20): (21.1%) | Bilirubin >10% increase from Baseline, n subjects (Week 20): 8 | Bilirubin Within 10% of Baseline, % of subjects (Week 20): (13.2%) | Bilirubin Within 10% of Baseline, n subjects (Week 20): 5 | ALKALINE PHOSPHATASE Change from Baseline, Median (Week 20): −25.5 U/L | ALT Change from Baseline, Mean (Week 20): −10.3 U/L | ALT Change from Baseline, Median (Week 20): −6.5 U/L | ALT Observed Value, Mean (Week 20): 34.8 U/L | ALT Observed Value, Median (Week 20): 28.5 U/L | AST Change from Baseline, Mean (Week 20): −4.2 U/L | AST Change from Baseline, Median (Week 20): −2.5 U/L | AST Observed Value, Mean (Week 20): 28.4 U/L | AST Observed Value, Median (Week 20): 24.5 U/L | Albumin Change from Baseline, Mean (Week 20): -0.6 g/L | Albumin Change from Baseline, Median (Week 20): -1 g/L | Albumin Observed Value, Mean (Week 20): 41.8 g/L | Albumin Observed Value, Median (Week 20): 43 g/L | Alkaline Phosphatase Change from Baseline, Mean (Week 20): −28.6 U/L | Alkaline Phosphatase Observed Value, Mean (Week 20): 109.8 U/L | Alkaline Phosphatase Observed Value, Median (Week 20): 94.5 U/L | Bilirubin Change from Baseline, Mean (Week 20): -2.76 µmol/L | Bilirubin Change from Baseline, Median (Week 20): -1.7 µmol/L | Bilirubin Observed Value, Mean (Week 20): 9.88 µmol/L | Bilirubin Observed Value, Median (Week 20): 7.85 µmol/L | Gamma Glutamyl Transferase Change from Baseline, Mean (Week 20): −9.6 U/L | Gamma Glutamyl Transferase Change from Baseline, Median (Week 20): −8 U/L | Gamma Glutamyl Transferase Observed Value, Mean (Week 20): 70.1 U/L | Gamma Glutamyl Transferase Observed Value, Median (Week 20): 47.5 U/L | ALT >10% decrease from Baseline, % of subjects (Week 24): (63.2%) | ALT >10% decrease from Baseline, n subjects (Week 24): 24 | ALT >10% increase from Baseline, % of subjects (Week 24): (10.5%) | ALT >10% increase from Baseline, n subjects (Week 24): 4 | ALT Within 10% of Baseline, % of subjects (Week 24): (26.3%) | ALT Within 10% of Baseline, n subjects (Week 24): 10 | AST >10% decrease from Baseline, % of subjects (Week 24): (63.2%) | AST >10% decrease from Baseline, n subjects (Week 24): 24 | AST >10% increase from Baseline, % of subjects (Week 24): (15.8%) | AST >10% increase from Baseline, n subjects (Week 24): 6 | AST Within 10% of Baseline, % of subjects (Week 24): (21.1%) | AST Within 10% of Baseline, n subjects (Week 24): 8 | Albumin >10% decrease from Baseline, % of subjects (Week 24): (5.3%) | Albumin >10% decrease from Baseline, n subjects (Week 24): 2 | Albumin >10% increase from Baseline, n subjects (Week 24): 0 | Albumin Within 10% of Baseline, % of subjects (Week 24): (94.7%) | Albumin Within 10% of Baseline, n subjects (Week 24): 36 | Alkaline Phosphatase >10% decrease from Baseline, % of subjects (Week 24): (60.5%) | Alkaline Phosphatase >10% decrease from Baseline, n subjects (Week 24): 23 | Alkaline Phosphatase >10% increase from Baseline, % of subjects (Week 24): (15.8%) | Alkaline Phosphatase >10% increase from Baseline, n subjects (Week 24): 6 | Alkaline Phosphatase Within 10% of Baseline, % of subjects (Week 24): (23.7%) | Alkaline Phosphatase Within 10% of Baseline, n subjects (Week 24): 9 | Bilirubin >10% decrease from Baseline, % of subjects (Week 24): (68.4%) | Bilirubin >10% decrease from Baseline, n subjects (Week 24): 26 | Bilirubin >10% increase from Baseline, % of subjects (Week 24): (15.8%) | Bilirubin >10% increase from Baseline, n subjects (Week 24): 6 | Bilirubin Within 10% of Baseline, % of subjects (Week 24): (15.8%) | Bilirubin Within 10% of Baseline, n subjects (Week 24): 6 | ALKALINE PHOSPHATASE Change from Baseline, Median (Week 24): −24.5 U/L | ALT Change from Baseline, Mean (Week 24): −13.5 U/L | ALT Change from Baseline, Median (Week 24): −7.5 U/L | ALT Observed Value, Mean (Week 24): 28.5 U/L | ALT Observed Value, Median (Week 24): 23.5 U/L | AST Change from Baseline, Mean (Week 24): −5.8 U/L | AST Change from Baseline, Median (Week 24): −5 U/L | AST Observed Value, Mean (Week 24): 25.8 U/L | AST Observed Value, Median (Week 24): 23 U/L | Albumin Change from Baseline, Mean (Week 24): -0.4 g/L | Albumin Change from Baseline, Median (Week 24): 0 g/L | Albumin Observed Value, Mean (Week 24): 41.9 g/L | Albumin Observed Value, Median (Week 24): 42 g/L | Alkaline Phosphatase Change from Baseline, Mean (Week 24): −29.2 U/L | Alkaline Phosphatase Observed Value, Mean (Week 24): 106.2 U/L | Alkaline Phosphatase Observed Value, Median (Week 24): 88 U/L | Bilirubin Change from Baseline, Mean (Week 24): -3.68 µmol/L | Bilirubin Change from Baseline, Median (Week 24): -2.35 µmol/L | Bilirubin Observed Value, Mean (Week 24): 8.64 µmol/L | Bilirubin Observed Value, Median (Week 24): 6.8 µmol/L | Gamma Glutamyl Transferase Change from Baseline, Mean (Week 24): −13.6 U/L | Gamma Glutamyl Transferase Change from Baseline, Median (Week 24): −6 U/L | Gamma Glutamyl Transferase Observed Value, Mean (Week 24): 60.4 U/L | Gamma Glutamyl Transferase Observed Value, Median (Week 24): 40.5 U/L
